The text below walks through data of ChEMBL document CHEMBL2169826, “Pharmacokinetic benefits of 3,4-dimethoxy substitution of a phenyl ring and design of isosteres yielding orally available cathepsin K inhibitors” (J Med Chem, 2012).

In brackets after ≈: the same amount, converted by molar mass. Where only a bound is given, the exact number is not on record here.

The species named for one series is Homo sapiens. As to the kind of experiment: Selectivity ratio of IC50 for human recombinant cathepsin-K to IC50 for human recombinant cathepsin-B.
A further series addresses Cathepsin S (Homo sapiens, UniProt P25774). Briefly: Inhibition of human recombinant cathepsin-S using Z-Val-Val-Arg-AMC as substrate preincubated for 15 mins measured after 1 hr by QFRET assay.
Series [1] in a line: Metabolic stability of the compound in human liver microsomes assessed as compound turnover after 120 mins. A general note: Microsomes from liver hold many membrane-bound enzymes, among them those of drug oxidation.
The target in the next series is Procathepsin L (Homo sapiens, UniProt P07711). As to the kind of experiment: Inhibition of human recombinant cathepsin-L using Z-Phe-Arg-AMC as substrate preincubated for 15 mins measured after 1 hr by QFRET assay.
Chain of Procathepsin L (P07711 whole entry): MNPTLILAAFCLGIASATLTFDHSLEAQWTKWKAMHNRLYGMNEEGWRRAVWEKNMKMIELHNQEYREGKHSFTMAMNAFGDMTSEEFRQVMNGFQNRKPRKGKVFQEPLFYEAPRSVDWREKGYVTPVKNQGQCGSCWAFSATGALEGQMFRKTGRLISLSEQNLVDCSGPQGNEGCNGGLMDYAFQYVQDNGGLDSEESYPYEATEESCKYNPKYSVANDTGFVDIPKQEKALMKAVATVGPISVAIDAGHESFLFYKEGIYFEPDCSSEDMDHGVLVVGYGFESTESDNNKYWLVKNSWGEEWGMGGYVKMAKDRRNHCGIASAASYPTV
A further series has as its target T1, Cathepsin K (Homo sapiens, UniProt P43235).
T1 sequence (P43235 whole entry): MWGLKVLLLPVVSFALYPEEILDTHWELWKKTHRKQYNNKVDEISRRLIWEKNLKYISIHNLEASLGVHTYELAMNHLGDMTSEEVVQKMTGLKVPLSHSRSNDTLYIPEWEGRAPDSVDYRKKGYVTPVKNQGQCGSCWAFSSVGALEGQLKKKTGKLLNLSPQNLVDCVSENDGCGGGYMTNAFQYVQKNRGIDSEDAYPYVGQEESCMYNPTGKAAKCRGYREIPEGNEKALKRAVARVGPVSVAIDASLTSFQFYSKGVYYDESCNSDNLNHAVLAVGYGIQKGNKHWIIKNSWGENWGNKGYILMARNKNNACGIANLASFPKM
Briefly: Inhibition of human recombinant cathepsin-k using Z-Phe-Arg-AMC as substrate preincubated for 15 mins measured after 1 hr by QFRET assay.

Series [2] in a line: Metabolic stability of the compound in rat liver microsomes assessed as compound turnover after 120 mins.
Another series deals with Cathepsin B (Homo sapiens, UniProt P07858). Briefly: Inhibition of human recombinant cathepsin-B using Z-Arg-Arg-AMC as substrate preincubated for 15 mins measured after 1 hr by QFRET assay.
Series [3] is described as follows: Oral bioavailability in Alderley Park Han Wistar rat at 2 mg/kg. Format: ADME, organism-based. As to conditions: in vivo.
Series [4] is described as follows: Volume of distribution at steady state in Beagle dog at 1 mg/kg, iv and 1 mg/kg, po. Format: ADME, organism-based, Canis lupus familiaris. The note with it: in vivo, read-out: Vdss.
Series [5] is described as follows: Aqueous solubility of the compound in at pH 7.4. As to conditions: buffer.
A short description of series [6]: Inhibition of osteoclastogenesis in human bone marrow-derived stem cells assessed as reduction of pit formation by measuring TRACP5b activity after 7 days by bone TRAP assay. Format: functional. As to conditions: 168 h.
A short description of series [7]: Oral bioavailability in Beagle dog at 1 mg/kg. In kind it is ADME, organism-based, Canis lupus familiaris. The note with it: in vivo.
Series [8] can be described thus: Percentage unbound in dog plasma. Format: ADME, cell-free, Canis lupus familiaris.
Series [9] is described as follows: Volume of distribution at steady state in Alderley Park Han Wistar rat at 2 mg/kg, iv and 2 mg/kg, po. Format: ADME, organism-based. As to conditions: in vivo, read-out: Vdss.
Series [10] can be described thus: Percentage unbound in human plasma. In kind it is ADME, cell-free.
Series [11] can be described thus: Percentage unbound in rat plasma. Format: ADME, cell-free.
Another series is described as follows: physchem. The note with it: buffer, pH 7.4.
A further series concerns the target Cytochrome P450 3A4 (Homo sapiens, UniProt P08684). As to the kind of experiment: Inhibition of CYP3A4. In kind it is ADME.
Series [12] can be described thus: in vitro. The note with it: human, hepatocytes.
Series [13] can be described thus: in vivo. The note with it: Alderley Park Han Wistar, rat, plasma, iv, 2 mg/kg.
The nature of series [14]: in vitro. As to conditions: rat, hepatocytes.
Series [15] can be described thus: Oral bioavailability in rat. In kind it is ADME, organism-based. The note with it: in vivo.
Series [16] in a line: Clearance in rat. The note with it: in vivo. In kind it is ADME, organism-based.
Series [17] can be described thus: Volume of distribution at steady state in rat. Format: ADME, organism-based. As to conditions: in vivo, read-out: Vdss.
A short description of series [18]: in vivo. As to conditions: beagle, dog, plasma, iv, 1 mg/kg.

Chain of Cathepsin S (P25774 whole entry): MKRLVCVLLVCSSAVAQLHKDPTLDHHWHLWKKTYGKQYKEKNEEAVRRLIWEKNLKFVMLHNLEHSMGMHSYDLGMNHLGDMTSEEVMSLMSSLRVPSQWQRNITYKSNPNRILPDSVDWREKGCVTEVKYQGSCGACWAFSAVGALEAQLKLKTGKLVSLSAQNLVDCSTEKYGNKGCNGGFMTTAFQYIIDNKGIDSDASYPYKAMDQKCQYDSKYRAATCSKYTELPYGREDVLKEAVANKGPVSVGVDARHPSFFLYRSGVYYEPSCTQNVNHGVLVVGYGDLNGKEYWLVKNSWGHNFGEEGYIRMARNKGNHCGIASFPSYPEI
Chain of Cytochrome P450 3A4 (P08684 whole entry): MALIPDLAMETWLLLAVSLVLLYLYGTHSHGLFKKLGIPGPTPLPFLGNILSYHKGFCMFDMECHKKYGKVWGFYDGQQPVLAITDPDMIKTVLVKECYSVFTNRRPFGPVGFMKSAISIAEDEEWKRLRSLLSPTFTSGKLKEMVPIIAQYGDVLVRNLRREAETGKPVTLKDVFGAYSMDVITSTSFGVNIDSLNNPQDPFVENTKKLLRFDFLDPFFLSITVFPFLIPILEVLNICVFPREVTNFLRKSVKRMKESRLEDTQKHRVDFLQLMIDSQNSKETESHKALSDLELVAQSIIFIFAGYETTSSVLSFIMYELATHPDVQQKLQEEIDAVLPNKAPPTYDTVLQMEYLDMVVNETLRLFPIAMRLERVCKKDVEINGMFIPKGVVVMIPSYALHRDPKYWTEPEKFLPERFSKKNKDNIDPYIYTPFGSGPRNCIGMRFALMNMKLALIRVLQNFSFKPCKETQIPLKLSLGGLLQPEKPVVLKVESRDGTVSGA

The IC50 is the midpoint of a concentration-inhibition curve. As a reminder, the microsomal CLint is the capacity of the preparation to metabolise the compound, expressed as a volume cleared per time. For `COc1ccc(N2CCN(C(=O)[C@@H]3CCCC[C@H]3C(=O)NCC#N)CC2)cc1OC`, the Ratio IC50 in the series listed under Homo sapiens came to 211. For the same molecule, the IC50 was 1090 nM at Cathepsin S, over 10000 nM on Procathepsin L, 6 nM at Cathepsin K and 1270 nM at Cathepsin B. Besides, the microsomal CLint at 2 h in [1] was 2.2 µL/min/mg; in series [2], 6.8 µL/min/mg.
What is called bioavailability is dose-corrected exposure relative to a reference, in per cent. A low value points to little systemic uptake. The solubility is the dissolved amount per volume that the medium holds. The low end stands for a poorly soluble substance, the high end for a readily soluble substance. The fraction unbound is the share of the substance not bound to proteins or other matrix. The term logD denotes the decadic logarithm of the distribution of all forms, ionised or not, between an organic phase and buffer at a given pH. With `COc1ccc(N2CCN(C(=O)[C@@H]3CCCC[C@H]3C(=O)NC3(C#N)CC3)[C@H](C)C2)cc1OC`, the IC50 was 1450 nM at Cathepsin S; over 10000 nM at Procathepsin L; 4 nM on Cathepsin K; 40 nM in series [6]; 1850 nM on Cathepsin B. Also, the bioavailability stood at 46% in series [3] and 71% in series [7]. Besides, the Vd in series [4] was determined as 0.8 L/kg; in [9], 1.2 L/kg. The molecule also gave a solubility in series [5] of over 2400 µM. Also, the fraction unbound in [8] was found to be 0.39; in series [10], 0.39; in series [11], 0.53. This molecule had a logD in the series “physchem” of 1.9.
By hepatocyte CLint is commonly meant the capacity of the preparation to metabolise the compound, expressed as a volume cleared per time. Low readings indicate slow turnover, high ones rapid turnover. The clearance is the rate of elimination divided by the concentration. `COc1cc(N2CCN(C(=O)[C@@H]3CCCC[C@H]3C(=O)NC3(C#N)CC3)[C@H](C)C2)ccc1C1CC1`: the concentration for half-maximal inhibition (IC50) on Cathepsin S is 1370 nM; at Procathepsin L, over 10000 nM; at Cathepsin K, 3 nM; at Cathepsin B it was 1140 nM. The microsomal CLint at 2 h was found to be 9 µL/min/mg in [1] and 33 µL/min/mg in series [2]. Further, the bioavailability in [3] is 57%. Further, the concentration in solution in [5] (solubility) was 200 µM (≈ 92.9 µg/mL). In addition, the INH on Cytochrome P450 3A4 turned out to be 1.6 µM. The values for the intrinsic metabolic clearance (hepatocyte CLint) in “in vitro [12]” and in “in vitro [14]” were 25 µL/min/1e6 cells and 13 µL/min/1e6 cells, respectively. In addition, in the series “in vivo [13]”, the clearance was found to be 39 mL/min/kg. For the same molecule, the Vd in series [9] stood at 2.8 L/kg. Besides, the results for the fraction unbound in series [10] and in series [11] were 0.081 and 0.072, respectively. Further, in the series “physchem”, the logD is 3.5.
For the molecule `CC(C)(F)C[C@H](N[C@@H](c1ccc(-c2ccc(S(C)(=O)=O)cc2)cc1)C(F)(F)F)C(=O)NC1(C#N)CC1` [ODANACATIB], the IC50 in series [6] was determined as 100 nM.
Regarding `N#CC1(NC(=O)[C@@H]2CCCC[C@H]2C(=O)N2CCN(c3ccc(F)cc3)CC2)CC1`, the bioavailability in series [3] and in series [15] was 0% in each case. In series [2], the microsomal CLint at 2 h was 35 µL/min/mg. For the same molecule, the clearance (in “in vivo [13]”; in series [16]) was 36 mL/min/kg in each case. The Vd in [17] and in series [9] was 1.3 L/kg each time. The unbound share (fraction unbound) was over 0.5 in series [10] and over 0.53 in [11].
As for `Cc1noc2cc(N3CCN(C(=O)[C@@H]4CCCC[C@H]4C(=O)NC4(C#N)CC4)[C@H](C)C3)ccc12`, the IC50 on Cathepsin S is 807 nM; at Procathepsin L, over 10000 nM; at Cathepsin K it was 16 nM; on Cathepsin B, 603 nM. Moreover, the microsomal CLint at 2 h in series [1] was 9.3 µL/min/mg. Besides, in [3], the bioavailability is 21%. The solubility in series [5] came out at 600 µM (≈ 270 µg/mL). Moreover, the hepatocyte CLint in the series “in vitro [12]” worked out at 30 µL/min/1e6 cells; in “in vitro [14]”, 9.4 µL/min/1e6 cells. In the series “in vivo [13]”, this molecule yielded a clearance of 29 mL/min/kg. In addition, the Vd in series [9] came out at 2.1 L/kg. In addition, the fraction unbound is 0.2 in series [10] and 0.14 in series [11]. This molecule gave a logD in “physchem” of 2.7.
With `COc1ccc(N2CCN(C(=O)[C@@H]3CCCC[C@H]3C(=O)NC3(C#N)CC3)CC2)cc1OC`, the clearance worked out at 12 mL/min/kg in the series “in vivo [18]” and 29 mL/min/kg in the series “in vivo [13]”. Also, the Ratio IC50 in the series filed under Homo sapiens amounted to 340. Moreover, the IC50 was 2290 nM on Cathepsin S; over 10000 nM on Procathepsin L; 9 nM at Cathepsin K; 126 nM in series [6]; 3060 nM at Cathepsin B. Besides, the values for the microsomal CLint at 2 h in [1] and in series [2] were 2.3 µL/min/mg and under 7.4 µL/min/mg, respectively. Moreover, the bioavailability was 41% in series [3] and 79% in [7]. The solubility in series [5] is over 2500 µM. The same molecule gave a free fraction (fraction unbound) in series [10] of 0.45. The logD in “physchem” worked out at 1.4.
Regarding `Cc1nn(C)c2cc(N3CCN(C(=O)[C@@H]4CCCC[C@H]4C(=O)NC4(C#N)CC4)[C@H](C)C3)ccc12`, the concentration for half-maximal inhibition (IC50) at Cathepsin S was 1250 nM; on Procathepsin L, over 10000 nM; on Cathepsin K it was 8 nM; at Cathepsin B, 766 nM. In addition, the intrinsic clearance (microsomal CLint) at 2 h in series [1] is 8.8 µL/min/mg; in series [2], 15 µL/min/mg. In series [3], this molecule displayed a bioavailability of 87%. Besides, in series [5], the solubility was over 1100 µM. In addition, the intrinsic clearance (hepatocyte CLint) was determined as 4.7 µL/min/1e6 cells in “in vitro [12]” and 4.6 µL/min/1e6 cells in “in vitro [14]”. The same molecule had a clearance in “in vivo [13]” of 19 mL/min/kg. Besides, the Vd in [9] is 2.5 L/kg. For the same molecule, the figures for the unbound share (fraction unbound) in series [10] and in series [11] were 0.28 and 0.3, respectively. In the series “physchem”, the pH-dependent lipophilicity (logD) was determined as 2.7.
